Here are results for one compound from ChEMBL document CHEMBL1131402, “Potent piperazine hydroxyethylamine HIV protease inhibitors containing novel P3 ligands” (Bioorg Med Chem Lett, 1998).

The structures appear in SMILES notation.

Assay [1] deals with Human immunodeficiency virus 1. Kind of assay: Antiviral activity was assessed against K20K/R, 36M/I, 154V, A71A/V, V82T viral strains isolated from patient-129 pretreated with ritonavir(7 fold) at 16th week. The class given is functional, organism-based.
Assay [2] deals with Human immunodeficiency virus type 1 protease (Human immunodeficiency virus 1) (UniProt Q72874). Kind of assay: Inhibition of HIV protease at 0.5 nM.
The subject of assay [3] is Human immunodeficiency virus 1. Kind of assay: Antiviral activity was assessed against M36M/I, I54I/V, V82F/A/S/T viral strains isolated from patient-313 pretreated with ritonavir(3 fold) at 85th day. It is filed as functional, organism-based.
In assay [4] the test system is Human immunodeficiency virus 1. Put plainly: Antiviral activity was assessed against K20K/R, M36M/I, 154V/I, L63L/P, V82/A viral strains isolated from patient-131 pretreated with ritonavir(7 fold) at 28th week. The class given is functional, organism-based.
Assay [5] deals with Human immunodeficiency virus 1. Kind of assay: Antiviral activity was assessed against M36M/I, V82F viral strains isolated from patient-313 pretreated with ritonavir(3 fold) at 57th day. It is filed as functional, organism-based.
The test system of assay [6] is Human immunodeficiency virus 1. Kind of assay: Antiviral activity was assessed against M36I, I54V, A71V, V82T viral strains isolated from patient-129 pretreated with ritonavir(2 fold) at 8th week. The class given is functional, organism-based.
For assay [7], the system named is Human immunodeficiency virus 1. Put plainly: Antiviral activity was assessed against I54I/V, A71V, V82A, L90L/M viral strains isolated from patient-235 pretreated with ritonavir (2 fold) at 36th week. The class given is functional, organism-based.
The test system of assay [8] is MT4. Put plainly: Cytotoxicity against MT-4 cells was determined by using cytopathic effect assay. It is filed as functional, Homo sapiens. (In general: Damage to the host cells serves as the signal in cytopathic effect assays.)
Assay [9] addresses Cytochrome P450 3A4 (Homo sapiens, UniProt P08684). Put plainly: […] inhibition of human liver microsomal Cytochrome P450 3A4. It is filed as ADME. On the technique in general: Microsomes from liver hold many membrane-bound enzymes, among them those of drug oxidation.
Assay [10] deals with Human immunodeficiency virus 1. Put plainly: Anti-HIV activity was determined in MT-4 cells in the presence of 50% human serum using cytopathic effect assay. It is filed as functional, organism-based. As to conditions: Human immunodeficiency virus 1, MT4, Serum.
In assay [11] the test system is Human immunodeficiency virus 1. Kind of assay: Anti-HIV activity was determined in MT-4 cells in the presence of 0% human serum using cytopathic effect assay. It is filed as functional, organism-based. The conditions noted are these: Human immunodeficiency virus 1, MT4.

Chain of Cytochrome P450 3A4 (P08684 whole entry): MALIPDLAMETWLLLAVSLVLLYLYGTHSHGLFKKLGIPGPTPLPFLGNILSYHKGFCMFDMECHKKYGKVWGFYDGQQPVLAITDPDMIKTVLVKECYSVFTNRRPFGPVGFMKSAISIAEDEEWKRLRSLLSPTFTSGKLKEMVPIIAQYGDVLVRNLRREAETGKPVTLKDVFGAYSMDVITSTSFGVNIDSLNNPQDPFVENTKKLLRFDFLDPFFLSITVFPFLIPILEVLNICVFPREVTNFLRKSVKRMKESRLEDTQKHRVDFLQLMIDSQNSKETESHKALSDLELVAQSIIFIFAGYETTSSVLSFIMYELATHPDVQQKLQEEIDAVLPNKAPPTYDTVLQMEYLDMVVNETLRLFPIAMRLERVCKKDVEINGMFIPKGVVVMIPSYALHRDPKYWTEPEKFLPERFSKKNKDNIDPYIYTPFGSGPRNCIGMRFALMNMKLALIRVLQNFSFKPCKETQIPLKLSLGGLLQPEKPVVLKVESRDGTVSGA

`CC(C)c1nc(COC(=O)N[C@H](C(=O)N[C@@H](Cc2ccccc2)[C@H](O)CN2CCN(Cc3ccc4c(c3)OCO4)C[C@H]2C(=O)NC(C)(C)C)C(C)C)cs1`: the EC50 (usually the concentration that produces a half-maximal response) in [1] stood at 33 nM; in [3], 27 nM; in assay [4] it was 29 nM; in [5] it was 24 nM; in [6] it was 10 nM; in [7] it was 24 nM. The figures for the EC50 in assay [10] and in assay [11] were 40 nM and 7 nM, respectively. Further, the inhibition (as a rule, the percentage by which the read-out fell short of the control) in [2] came out at 60%. For the same compound, the CCIC50 in assay [8] was found to be 13 µM. Further, in assay [9], the half-maximal inhibitory concentration (IC50) (in general, the concentration that gives 50% inhibition) turned out to be 9600 nM.
